In general, IC50 refers to the concentration needed to halve the response being measured.

Some results are limits rather than exact numbers.

The target in the first experiment is human PDE4D catalytic domain (Homo sapiens (Human), UniProt Q08499). Put plainly: PDE4 Assay (TR-FRET, FAM-cAMP cleavage). In kind it is biochemical. To be noted: Table 16, Examples 277-296; read-out: PDE4 IC50 range. In outline: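 Readout is Tb-to-FAM time-resolved FRET after nanoparticle capture of AMP, the product of cleaving a cAMP/FAM-cAMP mixture by PDE4D catalytic domain (S380-L740) in the presence of titrated compound. Values are IC50 ranges in nM: concentration halving substrate cleavage relative to controls.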
Chain of human PDE4D catalytic domain (Q08499 380-740): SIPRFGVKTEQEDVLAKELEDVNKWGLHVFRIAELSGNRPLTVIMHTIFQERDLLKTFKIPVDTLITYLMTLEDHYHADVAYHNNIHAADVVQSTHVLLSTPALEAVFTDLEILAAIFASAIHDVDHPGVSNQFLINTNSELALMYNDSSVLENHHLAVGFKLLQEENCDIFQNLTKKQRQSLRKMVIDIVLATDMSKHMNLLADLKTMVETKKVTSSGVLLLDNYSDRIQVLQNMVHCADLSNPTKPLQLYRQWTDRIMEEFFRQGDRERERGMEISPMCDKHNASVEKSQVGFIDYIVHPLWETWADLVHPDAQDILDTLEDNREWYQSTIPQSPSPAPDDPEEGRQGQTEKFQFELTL
Background: Time-resolved FRET reads energy transfer from a long-lived donor to a nearby acceptor.
Take `CCn1nc(C[C@@H](C)COC(=O)c2cc(C)n(C)n2)c2c1C(=O)NCC1(CCOCC1)C2` [Example 289, [(2R)-3-(1-ethyl-8-oxo-spiro[6,7-dihydro-4H-pyrazolo[3,4-c]azepine-5,4′-tetrahydropyran]-3-yl)-2-methyl-propyl] 1,5-dimethylpyrazole-3-carboxylate]: the concentration for half-maximal inhibition (IC50) was under 100 nM.

Consider `CCn1nc(C[C@@H](C)COC(=O)C2CCOCC2)c2c1C(=O)NCC1(CCOCC1)C2` [Example 287, [(2R)-3-(1-ethyl-8-oxo-spiro[6,7-dihydro-4H-pyrazolo[3,4-c]azepine-5,4′-tetrahydropyran]-3-yl)-2-methyl-propyl] tetrahydropyran-4-carboxylate], for which the IC50 was under 100 nM.

The same experiment, now with this note: Table 17, Examples 297-316; read-out: PDE4 IC50 range.
`CCn1nc(CC(C)(C)COC(=O)c2ccn(C)n2)c2c1C(=O)NCC1(CCOCC1)C2` [Example 298, [3-(1-ethyl-8-oxo-spiro[6,7-dihydro-4H-pyrazolo[3,4-c]azepine-5,4′-tetrahydro-pyran]-3-yl)-2,2-dimethyl-propyl] 1-methylpyrazole-3-carboxylate]: the IC50 is under 100 nM.

Consider `CCn1nc(CC(C)(C)COC(=O)c2ccns2)c2c1C(=O)NCC1(CCOCC1)C2` [Example 303, [3-(1-ethyl-8-oxo-spiro[6,7-dihydro-4H-pyrazolo[3,4-c]azepine-5,4′-tetrahydro-pyran]-3-yl)-2,2-dimethyl-propyl] isothiazole-5-carboxylate], for which the IC50 is under 100 nM.

Staying with this experiment, now noted: human PDE4D catalytic domain (UniProt Q08499 [S380-L740]); 50% inhibition of substrate cleavage; read-out: PDE4 IC50 range.
In the case of `CCn1nc(CCCOC(=O)c2ccc(OC)cc2F)c2c1C(=O)NCC1(CCOCC1)C2` [Example 38, 3-(1-ethyl-8-oxo-spiro[6,7-dihydro-4H-pyrazolo[3,4-c]azepine-5,4′-tetrahydropyran]-3-yl)propyl 2-fluoro-4-methoxy-benzoate], the IC50 is under 100 nM.

Take `CCn1nc(CCOC(=O)c2cnsc2)c2c1C(=O)NCC1(CCOCC1)C2` [Example 275, 2-(1-ethyl-8-oxo-spiro[6,7-dihydro-4H-pyrazolo[3,4-c]azepine-5,4′-tetrahydropyran]-3-yl)ethyl isothiazole-4-carboxylate]: the IC50 is under 100 nM.

Regarding `CCn1nc(CC(C)(C)COC(=O)c2ccccc2F)c2c1C(=O)NCC1(CCOCC1)C2` [Example 193, [3-(1-ethyl-8-oxo-spiro[6,7-dihydro-4H-pyrazolo[3,4-c]azepine-5,4′-tetrahydropyran]-3-yl)-2,2-dimethyl-propyl] 2-fluorobenzoate], the half-maximal inhibitory concentration (IC50) was under 100 nM.

For the molecule `CCn1nc(CC(C)(C)COC(=O)c2cccc(OC)c2)c2c1C(=O)NCC1(CCOCC1)C2` [Example 196, [3-(1-ethyl-8-oxo-spiro[6,7-dihydro-4H-pyrazolo[3,4-c]azepine-5,4′-tetrahydropyran]-3-yl)-2,2-dimethyl-propyl] 3-methoxybenzoate], the IC50 is under 100 nM.

In the case of `CCn1nc(CCCOC(=O)c2cnc(C)nc2)c2c1C(=O)NCC1(CCOCC1)C2` [Example 247, 3-(1-ethyl-8-oxo-spiro[6,7-dihydro-4H-pyrazolo[3,4-c]azepine-5,4′-tetrahydropyran]-3-yl)propyl 2-methylpyrimidine-5-carboxylate], the IC50 is under 100 nM.

Consider `CCn1nc(C[C@@H](C)COC(=O)CCSC)c2c1C(=O)NCC1(CCOCC1)C2` [Example 139, [(2R)-3-(1-ethyl-8-oxo-spiro[6,7-dihydro-4H-pyrazolo[3,4-c]azepine-5,4′-tetrahydropyran]-3-yl)-2-methyl-propyl] 3-methylsulfanylpropanoate], for which the 50% inhibitory concentration (IC50) is under 100 nM.

With `CCn1nc(CCCOC(=O)c2ccn(C)n2)c2c1C(=O)NCC1(CCOCC1)C2` [Example 237, 3-(1-ethyl-8-oxo-spiro[6,7-dihydro-4H-pyrazolo[3,4-c]azepine-5,4′-tetrahydropyran]-3-yl)propyl 1-methylpyrazole-3-carboxylate], the IC50 was under 100 nM.

Take `CCn1nc(CCCOC(=O)c2ccc(Cl)c(C(F)(F)F)c2)c2c1C(=O)NCC1(CCOCC1)C2` [Example 89, 3-(1-ethyl-8-oxo-spiro[6,7-dihydro-4H-pyrazolo[3,4-c]azepine-5,4′-tetrahydro-pyran]-3-yl)propyl 4-chloro-3-(trifluoromethyl)benzoate]: the half-maximal inhibitory concentration (IC50) is under 100 nM.

Turning to `CCn1nc(C[C@@H](C)COC(=O)c2cccc(S(=O)(=O)N3CCOCC3)c2)c2c1C(=O)NCC1(CCOCC1)C2` [Example 164, [(2R)-3-(1-ethyl-8-oxo-spiro[6,7-dihydro-4H-pyrazolo[3,4-c]azepine-5,4′-tetrahydropyran]-3-yl)-2-methyl-propyl] 3-morpholinosulfonylbenzoate], the IC50 was under 100 nM.

In the case of `CCn1nc(C[C@@H](C)COC(=O)c2ccc(S(=O)(=O)CC)cc2)c2c1C(=O)NCC1(CCOCC1)C2` [Example 157, [(2R)-3-(1-ethyl-8-oxo-spiro[6,7-dihydro-4H-pyrazolo[3,4-c]azepine-5,4′-tetrahydropyran]-3-yl)-2-methyl-propyl] 4-ethylsulfonylbenzoate], the IC50 is under 100 nM.

Turning to `CCn1nc(CCCOC(=O)c2c(F)cccc2Cl)c2c1C(=O)NCC1(CCOCC1)C2` [Example 52, 3-(1-ethyl-8-oxo-spiro[6,7-dihydro-4H-pyrazolo[3,4-c]azepine-5,4′-tetrahydropyran]-3-yl)propyl 2-chloro-6-fluoro-benzoate], the half-inhibitory concentration (IC50) is under 100 nM.

Turning to `CCn1nc(CCCCOC(=O)c2ccc(S(C)(=O)=O)cc2)c2c1C(=O)NCC1(CCOCC1)C2` [Example 130, 4-(1-ethyl-8-oxo-spiro[6,7-dihydro-4H-pyrazolo[3,4-c]azepine-5,4′-tetrahydropyran]-3-yl)butyl 4-methylsulfonyl-benzoate], the IC50 is under 100 nM.

For `CCn1nc(CCCOC(=O)c2cc(C)n(C)n2)c2c1C(=O)NCC1(CCOCC1)C2` [Example 249, 3-(1-ethyl-8-oxo-spiro[6,7-dihydro-4H-pyrazolo[3,4-c]azepine-5,4′-tetrahydro-pyran]-3-yl)propyl 1,5-dimethylpyrazole-3-carboxylate], the 50% inhibitory concentration (IC50) was under 100 nM.

Take `CCn1nc(CCCOC(=O)c2cc(F)cc(Cl)c2)c2c1C(=O)NCC1(CCOCC1)C2` [Example 47, 3-(1-ethyl-8-oxo-spiro[6,7-dihydro-4H-pyrazolo[3,4-c]azepine-5,4′-tetrahydropyran]-3-yl)propyl 3-chloro-5-fluoro-benzoate]: the IC50 is under 100 nM.

As for `CCn1cc(C(=O)OCCCc2nn(CC)c3c2CC2(CCOCC2)CNC3=O)cn1` [Example 250, 3-(1-ethyl-8-oxo-spiro[6,7-dihydro-4H-pyrazolo[3,4-c]azepine-5,4′-tetrahydropyran]-3-yl)propyl 1-ethylpyrazole-4-carboxylate], the IC50 was under 100 nM.

As to `CCn1nc(CC(C)(C)COC(=O)c2ccccc2C)c2c1C(=O)NCC1(CCOCC1)C2` [Example 189, [3-(1-ethyl-8-oxo-spiro[6,7-dihydro-4H-pyrazolo[3,4-c]azepine-5,4′-tetrahydropyran]-3-yl)-2,2-dimethyl-propyl] 2-methylbenzoate], the IC50 is under 100 nM.

Consider `CCn1nc(CCCOC(=O)c2cc(F)ccc2C)c2c1C(=O)NCC1(CCOCC1)C2` [Example 20, 3-(1-ethyl-8-oxo-spiro[6,7-dihydro-4H-pyrazolo[3,4-c]azepine-5,4′-tetrahydropyran]-3-yl)propyl 5-fluoro-2-methyl-benzoate], for which the IC50 is under 100 nM.

Regarding `CCn1nc(CCCOC(=O)c2ccc(S(C)(=O)=O)cc2)c2c1C(=O)NCC1(CCOCC1)C2` [Example 3, 3-(1-Ethyl-8-oxo-spiro[6,7-dihydro-4H-pyrazolo[3,4-c]azepine-5,4′-tetrahydropyran]-3-yl)propyl 4-methylsulfonylbenzoate], the IC50 is under 100 nM.

In the case of `CCn1nc(CCCOC(=O)c2cccc(S(C)(=O)=O)c2)c2c1C(=O)NCC1(CCOCC1)C2` [Example 63, 3-(1-ethyl-8-oxo-spiro[6,7-dihydro-4H-pyrazolo[3,4-c]azepine-5,4′-tetrahydropyran]-3-yl)propyl 3-methylsulfonylbenzoate], the IC50 is under 100 nM.

`CCn1nc(C[C@@H](C)COC(=O)c2cccc(C(C)=O)c2)c2c1C(=O)NCC1(CCOCC1)C2` [Example 154, [(2R)-3-(1-ethyl-8-oxo-spiro[6,7-dihydro-4H-pyrazolo[3,4-c]azepine-5,4′-tetrahydropyran]-3-yl)-2-methyl-propyl] 3-acetylbenzoate]: the IC50 was under 100 nM.

For `CCn1nc(C[C@@H](C)COC(=O)c2ccc(C(=O)N3CCN(C)CC3)cc2)c2c1C(=O)NCC1(CCOCC1)C2` [Example 175, [(2R)-3-(1-ethyl-8-oxo-spiro[6,7-dihydro-4H-pyrazolo[3,4-c]azepine-5,4′-tetrahydropyran]-3-yl)-2-methyl-propyl] 4-(4-methylpiperazine-1-carbonyl)benzoate], the IC50 is under 100 nM.

Turning to `CCn1nc(CCCOC(=O)C2CCN(C(C)=O)CC2)c2c1C(=O)NCC1(CCOCC1)C2` [Example 261, 3-(1-ethyl-8-oxo-spiro[6,7-dihydro-4H-pyrazolo[3,4-c]azepine-5,4′-tetrahydropyran]-3-yl)propyl 1-acetylpiperidine-4-carboxylate], the IC50 was under 100 nM.

Consider `CCn1nc(CCCOC(=O)c2cccc(C(=O)N3CCCC3)c2)c2c1C(=O)NCC1(CCOCC1)C2` [Example 116, 3-(1-ethyl-8-oxo-spiro[6,7-dihydro-4H-pyrazolo[3,4-c]azepine-5,4′-tetrahydropyran]-3-yl)propyl 3-(pyrrolidine-1-carbonyl)benzoate], for which the IC50 is under 100 nM.

Consider `CCn1nc(CC(C)(C)COC(=O)c2cccc(C)c2)c2c1C(=O)NCC1(CCOCC1)C2` [Example 190, [3-(1-ethyl-8-oxo-spiro[6,7-dihydro-4H-pyrazolo[3,4-c]azepine-5,4′-tetrahydropyran]-3-yl)-2,2-dimethyl-propyl] 3-methylbenzoate], for which the IC50 is under 100 nM.

The record behind these values is US10793580B2, “Substituted pyrazoloazepin-8-ones and their use as phosphodiesterase inhibitors” (LEO Pharma A/S, priority 2016, dated 2020).
